Measurements from publication PMC10539501 (Nature Communications, 2023).
Starred links: 1 amine or outer side, 2 acyl side, 3 side chain; linkers in the order of their positions; H or OH if unused. Non-standard residues stand in square brackets, D forms with d. Residues, ends and D or L forms follow the SMILES beside them. X2 = CC(C)C[C@H](NC(=S)[C@@H](CC(C)C)N[*:1])C(=O)[*:2]; X8 = O=C([C@H](Cc1ccccc1)NC(=S)[C@@H]1CCCN1[*:1])[*:2]; X4 = CC(C)C[C@H](N[*:1])C(=S)N1CCC[C@@H]1C(=O)[*:2]; NMeL = CN[C@@H](CC(C)C)C(=O)O

What was measured:
[1] = format: physicochemical
[2] = PAMPA passive permeability; format: in vitro ADME;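 further: passive permeability across an artificial membrane in 96-well pre-coated PAMPA plates, which lack transporters and efflux systems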
Method: Encouraged by this, the passive permeability of the analogs was evaluated using an artificial membrane (PAMPA), which measures permeability of compounds in the absence of transporters and efflux systems[32].
96-well BD Corning® pre-coated PAMPA plates were used following the supplier’s protocol, details in Supplementary Information.

[3] = format: physicochemical; remark: listed apart in the source
Text: Since reduced solvation of S also contributes to the lipophilicity of the thioamidated peptides, we sought to estimate the global desolvation of the macrocyclic peptides, which is affected by solvation of both N(H) and C(S). […] Thus, we evaluated the desolvation potential of the cyclic peptides by determining the distribution coefficients in heptane-ethylene glycol (logDh/e), a solvent system that provides an experimental estimate of desolvation or hydrogen bond potential[38].

[4] = in vitro; format: in vitro ADME, human
Method: (§1) The Caco-2 cell (HTB-37^TM from ATCC, procured from NCCS, Pune) monolayer was washed and pre-incubated at 37 °C and 5% CO2 for 30 min with HBSS-HEPES buffer containing 1% DMSO prior to experimentation. The assay was performed 21 days post-seeding of cells. TEER values were measured before starting and after the completion of the assay. Acceptor and donor well concentrations of the peptides and controls were assessed through LC-MS/MS.

[5] = system: Caco-2 cells; assay: in vitro; format: in vitro ADME, human; settings: Caco-2
Method: as §1

[6] = system: human liver microsomes
Method: (§2) A stability assessment of the peptides was done in simulated gastric (SGF) and intestinal (SIF) fluids and human liver microsomes. The degradation kinetics of the aliquoted samples at desired time points were analyzed through RP-HPLC.

[7] = rat, in vivo, po, 10 mg/kg
Method: (§3) All animals were housed individually in the animal facility at Anthem Biosciences Pvt. Ltd and were acclimatized for 3 days. All animals were fasted overnight before dosing, whereas access to water was provided ad libitum. Peptides were administered orally and via s.c. route and blood samples were collected at different time points through a jugular vein catheter.

[8] = in vivo; settings: male, Wistar, rat
Method: as §3

[9] = physchem; settings: pH 7.4
[10] = in vitro; settings: both, human, plasma
Method: (§4) Blood was freshly drawn from three healthy adults, two male and one person of 26–28 year old. […] The plasma was separated by centrifugation. […] For checking metabolic stability, the required volume of plasma was pre-incubated at 37 °C prior to the experiment for 2 min, followed by spiking with the peptides. At different time points, plasma was aliquoted. The supernatant was separated and used for RP-HPLC quantification. Rapid Equilibrium Dialysis (RED) assay was performed to assess the plasma protein binding of the peptides following the supplier’s protocol.

[11] = biological target: pepsin (Sus scrofa, UniProt P00791); assay: in vitro; settings: simulated gastric fluid, pH 1.2
Chain of pepsin (P00791 60-385): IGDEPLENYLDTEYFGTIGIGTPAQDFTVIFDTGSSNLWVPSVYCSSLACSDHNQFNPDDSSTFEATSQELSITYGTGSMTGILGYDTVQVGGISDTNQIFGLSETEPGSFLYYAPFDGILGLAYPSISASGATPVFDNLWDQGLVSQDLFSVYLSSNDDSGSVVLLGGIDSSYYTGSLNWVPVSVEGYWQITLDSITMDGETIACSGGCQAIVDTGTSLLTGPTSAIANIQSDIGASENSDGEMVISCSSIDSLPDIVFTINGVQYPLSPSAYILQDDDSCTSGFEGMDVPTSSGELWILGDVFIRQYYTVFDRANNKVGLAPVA
Method: as §2

[12] = in vitro; settings: pig, simulated intestinal fluid
[13] = in vitro; settings: human, microsomes
Method: as §2

[14] = in vitro; settings: both, human, plasma; remark: listed apart in the source
Method: as §4

[15] = Retention in hydrophobic C18 column by HPLC; settings: Supplementary Fig 3d, logD7.4 vs tR
[16] = HDX of amide protons by NMR in DMSO-d6:D2O (8:2); settings: HDX by NMR, 20% D2O in DMSO-d6
Method: (§5) As hydrogen bonding and solvation of NH groups play an important role in the permeability of macrocycles, we determined the solvent accessibility of individual amide protons in 10 and 10a–10f by hydrogen-deuterium exchange (HDX) through NMR spectroscopy (Figs. 2a–c).
(§6) Spectra were recorded on a Bruker AV 500 MHz spectrometer at 25 °C.

[17] = HDX of amide protons by NMR in CDCl3:CD3OD (8:2)
Method: as §5, §6

[18] = biological target: T1, SSTR2 (Homo sapiens, UniProt P30874); assay: GloSensor assay, inhibition of forskolin-induced cAMP production; format: cell-based; settings: read-out: IC50 sstr2
T1 construct: expressed in transfected cells; host or cells: HEK-293T (CRL-3216)
T1 sequence (P30874 whole entry): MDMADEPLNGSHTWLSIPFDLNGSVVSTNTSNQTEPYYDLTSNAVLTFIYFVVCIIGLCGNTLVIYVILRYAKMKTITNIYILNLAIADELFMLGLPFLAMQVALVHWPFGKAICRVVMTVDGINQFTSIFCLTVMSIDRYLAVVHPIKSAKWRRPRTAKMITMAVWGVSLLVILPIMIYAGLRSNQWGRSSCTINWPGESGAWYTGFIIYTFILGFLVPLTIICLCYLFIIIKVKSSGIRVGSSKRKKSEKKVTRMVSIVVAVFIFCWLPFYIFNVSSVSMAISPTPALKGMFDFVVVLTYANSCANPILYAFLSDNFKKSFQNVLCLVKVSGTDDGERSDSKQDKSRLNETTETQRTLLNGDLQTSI

[19] = biological target: T2, SSTR5 (Homo sapiens, UniProt P35346); assay: as above; format: cell-based
T2 construct: expressed in transfected cells; host or cells: HEK-293T (CRL-3216)
T2 sequence (P35346 whole entry): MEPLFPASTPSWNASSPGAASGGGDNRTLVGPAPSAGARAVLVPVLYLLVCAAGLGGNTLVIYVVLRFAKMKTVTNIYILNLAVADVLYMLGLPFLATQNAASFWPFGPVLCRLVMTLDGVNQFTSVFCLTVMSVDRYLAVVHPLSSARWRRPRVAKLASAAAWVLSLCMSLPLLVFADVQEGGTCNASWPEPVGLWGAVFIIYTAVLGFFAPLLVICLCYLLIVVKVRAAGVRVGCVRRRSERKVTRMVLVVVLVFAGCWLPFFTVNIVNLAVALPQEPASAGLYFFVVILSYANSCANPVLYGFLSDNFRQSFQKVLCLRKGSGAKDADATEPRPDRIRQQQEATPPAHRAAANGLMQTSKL
Method: HEK-293T cells (CRL-3216 from ATCC, procured from NCCS, Pune) were co-transfected with human somatostatin receptor subtypes 2 & 5, plasmid cDNA, and cAMP biosensor (pGloSensorTM-22F plasmid; Promega Corp.) using PEImax. Ligand incubation was followed by the addition and incubation of forskolin (FSK) to the plate. Dose-dependent inhibition of forskolin-induced cAMP production by the peptide ligands was measured using a luminescence plate reader. An elaborate description of the assay setup has been provided in Supplementary Information.

[20] = in vivo; settings: male, rat, sc
Method: Subsequently, we selected 13a, 13b, 13d, and 13e for assessing their plasma exposure post single dose subcutaneous injection into male Sprague Dawley rats.
as §3

[21] = 20% CD3OD in CDCl3, % remaining after 24 hours
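Wherever Papp A-B avg (second block) is given: Caco-2 monolayers used 21 days after seeding in HBSS-HEPES buffer with 1% DMSO, donor and acceptor levels quantified by LC-MS/MS, TEER checked before and after.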
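Wherever Papp A-B set 1 (second block) is given: Caco-2 monolayers used 21 days after seeding in HBSS-HEPES buffer with 1% DMSO, donor and acceptor levels quantified by LC-MS/MS, TEER checked before and after.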
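Wherever Papp A-B set 2 (second block) is given: Caco-2 monolayers used 21 days after seeding in HBSS-HEPES buffer with 1% DMSO, donor and acceptor levels quantified by LC-MS/MS, TEER checked before and after.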
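Wherever Papp B-A avg (second block) is given: Caco-2 monolayers used 21 days after seeding in HBSS-HEPES buffer with 1% DMSO, donor and acceptor levels quantified by LC-MS/MS, TEER checked before and after.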

## CC(C)C[C@@H]1NC(=O)[C@H](Cc2ccc(O)cc2)NC(=O)[C@H]2CCCN2C(=O)[C@H](CC(C)C)NC(=O)[C@H](CC(C)C)NC(=S)[C@@H](CC(C)C)NC1=O [10a] (cyclo(L[dP]YL[X2]))
[1]
  % solubility: 58%
[2]
  Pe set1: 8.08 ×10⁻⁶ cm/s
  Pe set2: 12.5 ×10⁻⁶ cm/s
  Pe set3: 11.81 ×10⁻⁶ cm/s
[2]; Pe Avg
  Papp: 10.8 ×10⁻⁶ cm/s
[3]
  logD heptane ethylene glycol: 0.97
[4]; Caco-2, Papp A-B + Elacridar avg
  Papp A→B: 13 ×10⁻⁶ cm/s
[4]; Caco-2, Papp A-B avg
  Papp A→B: 3.25 ×10⁻⁶ cm/s
[4]; Caco-2, Papp B-A + Elacridar avg
  Papp B→A: 16.9 ×10⁻⁶ cm/s
[4]; Caco-2, Papp B-A avg
  Papp B→A: 75.4 ×10⁻⁶ cm/s
[5]
  Papp A-B avg (second block): 3.25 ×10⁻⁶ cm/s
  Papp A-B set 1 (second block): 3.14 ×10⁻⁶ cm/s
  Papp A-B set 2 (second block): 3.36 ×10⁻⁶ cm/s
  Papp B-A avg (second block): 75.4 ×10⁻⁶ cm/s
  Papp B-A set 1 (second block): 77.4 ×10⁻⁶ cm/s
  Papp B-A set 2 (second block): 73.3 ×10⁻⁶ cm/s
[6]
  Half lives: 46.9
[7]
  AUClast p.o: 26.9 ng·h/mL
  time over which the peptide is detectable in plasma: ≥ 8 h
[8]; iv
  AUC(0-t): 146 ng·h/mL
  Cmax: 48.1 ng/mL
  MRT: 2.8 h
  Vd: 28.6 L/kg
  clearance: 91.1 mL/min/kg
[8]; po
  bioavailability: 1.8%
[8]; po, 10 mg/kg
  AUC(0-t): 26.9 ng·h/mL
  Cmax: 15 ng/mL
  MRT: 2 h
  level at 3 h: 3 ng/mL
[9]
  logD: 1.21
[10]
  fraction unbound: 0.28
[11]
  half-life: 0.7 h
  remaining at 5 min: 83%
  remaining at 10 min: 74%
  remaining at 20 min: 63%
  remaining at 0.5 h: 56%
  remaining at 1 h: 42%
  remaining at 2 h: 34%
  remaining at 4 h: 31%
  remaining at 8 h: 19%
  remaining at 12 h: 11%
  remaining at 24 h: 7%
[12]
  half-life: 2.45 h
  remaining at 10 min: 78.4%
  remaining at 0.5 h: 66%
  remaining at 1 h: 55.9%
  remaining at 2 h: 49.2%
  remaining at 4 h: 34%
  remaining at 8 h: 26.3%
  remaining at 12 h: 18.8%
  remaining at 24 h: 11%
[13]
  microsomal CLint: 29.5 µL/min/mg
  remaining at 5 min: 75%
  remaining at 10 min: 65%
  remaining at 20 min: 64%
  remaining at 0.5 h: 58%
  remaining at 0.75 h: 52%
  remaining at 1 h: 44%
[14]
  half-life: 22 h
  remaining at 1 h: 94%
  remaining at 3 h: 84%
  remaining at 5 h: 78%
  remaining at 7 h: 72%
  remaining at 9 h: 66%
  remaining at 12 h: 56%
  remaining at 24 h: 45%
  remaining at 36 h: 33%
  remaining at 48 h: 23%
  remaining at 60 h: 22%
  remaining at 72 h: 21%
[15]
  tR: 10.8 min
[16]
  Half-life of D-Leu1 amide proton (HDX): 2.83 h
  Half-life of Leu2 amide proton (HDX): 1.83 h
  Half-life of Leu3 amide proton (HDX): 12 h
  Half-life of Leu6 amide proton (HDX): 13.3 h
  Half-life of Tyr5 amide proton (HDX): 0.838 h
[17]; 20% CD3OD in CDCl3
  Half-life of D-Leu1 amide proton (HDX): 19.25 h
  Half-life of Leu2 amide proton (HDX): 0.333 h
  Half-life of Leu3 amide proton (HDX): > 24 h
  Half-life of Leu6 amide proton (HDX): > 24 h
  Half-life of Tyr5 amide proton (HDX): > 24 h
[17]; [21]
  % intact NH, Leu3: 80%
  % intact NH, Leu6: 89%
  % intact NH, Tyr5: 80%

## CC(C)C[C@@H]1NC(=O)[C@@H](CC(C)C)NC(=O)[C@H](CC(C)C)N(C)C(=O)[C@H](Cc2ccc(O)cc2)NC(=O)[C@H]2CCCN2C(=O)[C@H](CC(C)C)NC1=O [10k] (cyclo(LL[dP]Y[NMeL][dL]))
[2]; Pe Avg
  Papp: 6.13 ×10⁻⁶ cm/s
[6]
  Half lives: 10.3
[7]
  Fold Change of AUClast p.o: 393
[8]; iv
  AUC(0-t): 510 ng·h/mL
  Cmax: 1170 ng/mL
  MRT: 0.4 h
  Vd: 0.8 L/kg
  clearance: 33.3 mL/min/kg
[8]; po
  bioavailability: 6.8%
[8]; po, 10 mg/kg
  AUC(0-t): 345 ng·h/mL
  Cmax: 55.9 ng/mL
  MRT: 9 h
  level at 3 h: 26.6 ng/mL
[9]
  logD: 1.2
[10]
  fraction unbound: 0.53
[11]
  half-life: 1.75 h
  remaining at 2 min: 97%
  remaining at 10 min: 84%
  remaining at 20 min: 77%
  remaining at 0.5 h: 71%
  remaining at 1 h: 65%
  remaining at 2 h: 46%
  remaining at 4 h: 19%
  remaining at 8 h: 11%
  remaining at 12 h: 7%
[12]
  half-life: 1.55 h
  remaining at 10 min: 88%
  remaining at 0.5 h: 75%
  remaining at 1 h: 62%
  remaining at 2 h: 39%
  remaining at 4 h: 30%
  remaining at 8 h: 6%
  remaining at 12 h: 3%
[13]
  microsomal CLint: 144 µL/min/mg
  remaining at 2 min: 67%
  remaining at 10 min: 50%
  remaining at 20 min: 28%
  remaining at 0.5 h: 16%
  remaining at 0.75 h: 4.69%
  remaining at 1 h: 5.45%
[14]
  half-life: 12 h
  remaining at 2 h: 82%
  remaining at 4 h: 69%
  remaining at 8 h: 57%
  remaining at 16 h: 39%
  remaining at 24 h: 28%
  remaining at 48 h: 8%
  remaining at 72 h: 2.65%

## C[C@@H](O)[C@@H]1NC(=O)[C@H](CCCCN)NC(=O)[C@@H](Cc2c[nH]c3ccccc23)NC(=O)[C@H](Cc2ccccc2)NC(=S)[C@@H]2CCCN2C(=O)[C@H](Cc2ccccc2)NC1=O [13e] (cyclo(F[X8][dW]KT))
[2]; Pe
  Papp: 1.92 ×10⁻⁶ cm/s
[3]
  logD heptane ethylene glycol: -1.16
[18]
  IC50: 19.2 ± 11.4 nM
[19]
  IC50: 232 ± 70.4 nM
[20]; Sprague Dawley
  level at 0.5 h: 38.1 ng/mL
  level at 1 h: 57 ng/mL
[20]; Sprague-Dawley
  half-life: 0.6 ± 0.3 h
[9]
  logD: -0.72
[10]
  fraction unbound: 0.09
[14]
  half-life: 31 h

## CC(C)C[C@@H]1NC(=O)[C@@H](CC(C)C)NC(=O)[C@H]2CCCN2C(=S)[C@H](CC(C)C)NC(=O)[C@@H](CC(C)C)NC(=O)[C@H](CC(C)C)NC(=O)[C@@H]2CCCN2C(=O)[C@@H](C)NC1=O [12b] (cyclo(L[dL][X4][dL]L[dA]P))
[1]
  % solubility: 49%
[2]; Pe Avg
  Papp: 2.6 ×10⁻⁶ cm/s
[9]
  logD: 1.61
[15]
  tR: 15.5 min
